System: Sir2
Test: Western blot, Sir2 protein expression in C. elegans treated from L1 stage to adulthood
Type: in vivo
Details: for Sir2 protein expression, fold change of control (FIG. 7A): 3 days
Protocol: C. elegans culture: Synchronized L1 wild-type worms were transferred to NGM agar plates with the following treatments until adulthood (3 days): 1. control NGM plates, 2. NGM plate with 10 nM Compound 2 added to E. coli suspension, 3. NGM plate with 100 nM Compound 2 added to E. coli suspension.
Western blots: Phospho-AMPK, AMPK, Phospho-ACC, ACC antibodies were obtained from Cell Signaling (Danvers, Mass.). Sir2 antibody was obtained from MyBiosource (San Diego, Calif.). Protein levels of cell extracts were measured by BCA kit (Thermo Scientific, Pittsburgh, Pa.). For Western blot, 10-50 μg protein was resolved on 4-15% gradient polyacrylaminde gels (Criterion precast gel, Bio-Rad Laboratories, Hercules, Calif.), transferred to either PVDF or nitrocellulose membranes, incubated in blocking buffer (3% BSA or 5% non-fat dry milk in TBS) and then incubated with primary antibody (1:1000 dilution), washed and incubated with horseradish peroxidase- or fluorescence-conjugated secondary antibody (1:10000 dilution). Visualization was conducted using BioRad ChemiDoc instrumentation and software (Bio-Rad Laboratories, Hercules, Calif.) and band intensity was assessed using Image Lab 4.0 with correction for background and loading controls.

CC(C)C[C@@H]1NC(N=C(N)N)=NC1=O [Compound 2]
Sir2 protein expression, fold change of control (FIG. 7A) (10 nM): approximately 1.65 fold change | Sir2 protein expression, fold change of control (FIG. 7A) (100 nM): approximately 1.5 fold change | increase in Sir2 protein expression (L1 stage to adulthood (3 days), p=0.03): up to 60%

From patent US10344002B2, “Compositions and methods for treating metabolic disorders” (NuSirt Sciences, Inc., priority 2016, dated 2019)
